Data taken from patent US20200407393A1, “Medical Use” (priority 2018, published 2020).
Where two headings read alike, the source gives them in different places.

Legend:
[1] = test system: WT pseudotyped virus (PSV) infection of U373 cells; assay: microbe, parasite or virus in culture; type: cell-based; conditions: for IC50: Human immunodeficiency virus 1, U373 MG, cells treated 6 h, washed; for Fold Change vs EFdA: fold change of the persistence index relative to EFdA; for Persistence Index: ratio of the IC50 determined at 48 and 0 h
[2] = test system: WT pseudotyped virus (NL4-3 provirus with HIV gp160 envelope) in U373 cells; assay: PSV assay (pseudotyped virus assay), WT; conditions: read-out: WT IC50
Text: A pseudotyped virus assay (PSV) was used to assess the potency of the compounds. Replication defective virus was produced by co-transfection of a plasmid containing an NL4-3 provirus [containing a mutation in the envelope open reading frame (ORF) and a luciferase reporter gene replacing the nef ORF] and a CMV-promoter expression plasmid containing an ORF for various HIV gp160 envelope clones. The harvested virus was stored at −80 C in small aliquots and the titer of the virus measured to produce a robust signal for antiviral assays.
The PSV assay was performed by using U373 cells stably transformed to express human CD4, the primary receptor for HIV entry and either human CXCR4 or human CCR5 which are the co-receptors required for HIV entry as target cells for infection. […] This dose-range was applied to U373 cells and the pre-made pseudotyped virus added. The amount of luciferase signal produced after 3 days of culture was used to reflect the level of pseudotyped virus infection. […] IC50 values were determined from a 10 point dose response curve using 3-4-fold serial dilution for each compound, which spans a concentration range>1000 fold.
These values are plotted against the molar compound concentrations using the standard four parameter logistic equation:
y=((Vmax*x^n)/(K^n+x^n))+Y2 • where: • Y2=minimum y n=slope factor • Vmax=maximum y x=compound concentration [M] • K=EC50

[3] = test system: M184V pseudotyped virus in U373 cells; type: cell-based, HIV;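 note: reported value is IC50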
[4] = infected immediately (0 h), read-out: WT IC50 at t = 0 h
[5] = infected 48 h after removal of compound, read-out: WT IC50 at t = 48 h
[6] = Human immunodeficiency virus 1, NL43, U373 MG, 72 h
[7] = Human immunodeficiency virus 1, NL43, U373 MG
[8] = Table 4, luciferase signal after 3 days of culture
[9] = Table 5, mean of a greater number of data replicates

Compound	IC50 [2, 7] [nM]	IC50 [3, 9] [nM]	other results
C#C[C@]1(CO)O[C@@H](n2cnc3c(N)nc(F)nc32)C[C@@H]1O [EFdA, (2R,3S,5R)-5-(6-amino-2-fluoro-9H-purin-9-yl)-2-ethynyl-2-(hydroxymethyl)tetrahydrofuran-3-ol, reference compound]			IC50 [1, 4]: 7.4 nM; Fold Change vs EFdA [1]: 1.00; Persistence Index [1]: 42.87
C#C[C@]1(COC(=O)CCCCCCCCCCCCC)O[C@@H](n2cnc3c(N)nc(F)nc32)C[C@@H]1O [Example 1, ((2R,3S,5R)-5-(6-amino-2-fluoro-9H-purin-9-yl)-2-ethynyl-3-hydroxytetrahydrofuran-2-yl)methyl tetradecanoate]	1	10	IC50 [1, 5]: 89.1 nM; IC50 [1, 4]: 2.5 nM; Fold Change vs EFdA [1]: 1.33; Persistence Index [1]: 35.22; IC50 [2, 6]: 2 nM; IC50 [3, 8]: 12 nM
C#C[C@]1(COC(=O)CCCCCC)O[C@@H](n2cnc3c(N)nc(F)nc32)C[C@@H]1O [Example 2, ((2R,3S,5R)-5-(6-amino-2-fluoro-9H-purin-9-yl)-2-ethynyl-3-hydroxytetrahydrofuran-2-yl)methyl heptanoate]	3	15	IC50 [2, 6]: 3 nM; IC50 [3, 8]: 12 nM
C#C[C@]1(COC(=O)CCCCCCCCC)O[C@@H](n2cnc3c(N)nc(F)nc32)C[C@@H]1O [Example 3, ((2R,3S,5R)-5-(6-amino-2-fluoro-9H-purin-9-yl)-2-ethynyl-3-hydroxytetrahydrofuran-2-yl)methyl decanoate]	3	14	IC50 [2, 6]: 2 nM; IC50 [3, 8]: 15 nM
C#C[C@]1(COC(=O)C(CCC)CCC)O[C@@H](n2cnc3c(N)nc(F)nc32)C[C@@H]1O [Example 4, ((2R,3S,5R)-5-(6-amino-2-fluoro-9H-purin-9-yl)-2-ethynyl-3-hydroxytetrahydrofuran-2-yl)methyl 2-propyl pentanoate]	20	111	IC50 [1, 5]: 691 nM; IC50 [1, 4]: 21.1 nM; Fold Change vs EFdA [1]: 1.31; Persistence Index [1]: 32.78; IC50 [2, 6]: 14 nM; IC50 [3, 8]: 119 nM
C#C[C@]1(COC(=O)CCCCCCCCCCCCCCCCCCC)O[C@@H](n2cnc3c(N)nc(F)nc32)C[C@@H]1O [Example 5, ((2R,3S,5R)-5-(6-amino-2-fluoro-9H-purin-9-yl)-2-ethynyl-3-hydroxytetrahydrofuran-2-yl)methyl icosanoate]	67	333	IC50 [1, 5]: 102 nM; IC50 [1, 4]: 51.7 nM; Fold Change vs EFdA [1]: 23.90; Persistence Index [1]: 1.97; IC50 [2, 6]: 70 nM; IC50 [3, 8]: 322 nM
C#C[C@]1(COC(=O)CCCCCCC/C=C\C/C=C\C/C=C\CC)O[C@@H](n2cnc3c(N)nc(F)nc32)C[C@@H]1O [Example 6, (9Z,12Z,15Z)-((2R,3S,5R)-5-(6-amino-2-fluoro-9H-purin-9-yl)-2-ethynyl-3-hydroxytetrahydrofuran-2-yl)methyl octadeca-9,12,15-trienoate]	4	21	IC50 [1, 5]: 180 nM; IC50 [1, 4]: 3.7 nM; Fold Change vs EFdA [1]: 0.75; Persistence Index [1]: 56.90; IC50 [2, 6]: 4 nM; IC50 [3, 8]: 24 nM
C#C[C@]1(COC(C)=O)O[C@@H](n2cnc3c(N)nc(F)nc32)C[C@@H]1O [Example 7, ((2R,3S,5R)-5-(6-amino-2-fluoro-9H-purin-9-yl)-2-ethynyl-3-hydroxytetrahydrofuran-2-yl)methyl acetate]	14	55	
C#C[C@]1(COC(=O)CC)O[C@@H](n2cnc3c(N)nc(F)nc32)C[C@@H]1O [Example 8, ((2R,3S,5R)-5-(6-amino-2-fluoro-9H-purin-9-yl)-2-ethynyl-3-hydroxytetrahydrofuran-2-yl)methyl propionate]	8	39	
C#C[C@]1(COC(=O)CCC)O[C@@H](n2cnc3c(N)nc(F)nc32)C[C@@H]1O [Example 9, ((2R,3S,5R)-5-(6-amino-2-fluoro-9H-purin-9-yl)-2-ethynyl-3-hydroxytetrahydrofuran-2-yl)methyl butyrate]	5	26	
C#C[C@]1(COC(=O)CCCC)O[C@@H](n2cnc3c(N)nc(F)nc32)C[C@@H]1O [Example 10, ((2R,3S,5R)-5-(6-amino-2-fluoro-9H-purin-9-yl)-2-ethynyl-3-hydroxytetrahydrofuran-2-yl)methyl pentanoate]	3	19	
C#C[C@]1(COC(=O)CCCCCCCC)O[C@@H](n2cnc3c(N)nc(F)nc32)C[C@@H]1O [Example 11, ((2R,3S,5R)-5-(6-amino-2-fluoro-9H-purin-9-yl)-2-ethynyl-3-hydroxytetrahydrofuran-2-yl)methyl nonanoate]	3	13	
C#C[C@]1(COC(=O)CCCCCCCCCC)O[C@@H](n2cnc3c(N)nc(F)nc32)C[C@@H]1O [Example 12, ((2R,3S,5R)-5-(6-amino-2-fluoro-9H-purin-9-yl)-2-ethynyl-3-hydroxytetrahydrofuran-2-yl)methyl undecanoate]	2	9	
C#C[C@]1(COC(=O)CCCCCCCCCCCC)O[C@@H](n2cnc3c(N)nc(F)nc32)C[C@@H]1O [Example 13, ((2R,3S,5R)-5-(6-amino-2-fluoro-9H-purin-9-yl)-2-ethynyl-3-hydroxytetrahydrofuran-2-yl)methyl tridecanoate]	2	12	
C#C[C@]1(COC(=O)CCCCCCCCCCCCCC)O[C@@H](n2cnc3c(N)nc(F)nc32)C[C@@H]1O [Example 14, ((2R,3S,5R)-5-(6-amino-2-fluoro-9H-purin-9-yl)-2-ethynyl-3-hydroxytetrahydrofuran-2-yl)methyl pentadecanoate]	2	11	
C#C[C@]1(COC(=O)CCCCCCCCCCCCCCCC)O[C@@H](n2cnc3c(N)nc(F)nc32)C[C@@H]1O [Example 15, ((2R,3S,5R)-5-(6-amino-2-fluoro-9H-purin-9-yl)-2-ethynyl-3-hydroxytetrahydrofuran-2-yl)methyl heptadecanoate]	4	26	
C#C[C@]1(COC(=O)CCCCCCCC#CC)O[C@@H](n2cnc3c(N)nc(F)nc32)C[C@@H]1O [Example 17, ((2R,3S,5R)-5-(6-amino-2-fluoro-9H-purin-9-yl)-2-ethynyl-3-hydroxytetrahydrofuran-2-yl)methyl undec-9-ynoate]	3	13	
C#C[C@]1(COC(=O)CCCCCCCC#CCCCCCCCC)O[C@@H](n2cnc3c(N)nc(F)nc32)C[C@@H]1O [Example 18, ((2R,3S,5R)-5-(6-amino-2-fluoro-9H-purin-9-yl)-2-ethynyl-3-hydroxytetrahydrofuran-2-yl)methyl octadec-9-ynoate]	2	14	
C#C[C@]1(COC(=O)C(C)(C)C)O[C@@H](n2cnc3c(N)nc(F)nc32)C[C@@H]1O [Example 19, ((2R,3S,5R)-5-(6-amino-2-fluoro-9H-purin-9-yl)-2-ethynyl-3-hydroxytetrahydrofuran-2-yl)methyl pivalate]	30	150	
C#C[C@]1(COC(=O)C(C)(C)CCC)O[C@@H](n2cnc3c(N)nc(F)nc32)C[C@@H]1O [Example 20, ((2R,3S,5R)-5-(6-amino-2-fluoro-9H-purin-9-yl)-2-ethynyl-3-hydroxytetrahydrofuran-2-yl)methyl 2,2-dimethylpentanoate]	25	91	
C#C[C@]1(COC(=O)C(CCCC)CCCCCC)O[C@@H](n2cnc3c(N)nc(F)nc32)C[C@@H]1O (stereo partly drawn) [Example 21, ((2R,3S,5R)-5-(6-amino-2-fluoro-9H-purin-9-yl)-2-ethynyl-3-hydroxytetrahydrofuran-2-yl)methyl 2-butyloctanoate]	25	113	
C#C[C@]1(COC(=O)C(CCCCCC)CCCCCCCC)O[C@@H](n2cnc3c(N)nc(F)nc32)C[C@@H]1O (stereo partly drawn) [Example 22, ((2R,3S,5R)-5-(6-amino-2-fluoro-9H-purin-9-yl)-2-ethynyl-3-hydroxytetrahydrofuran-2-yl)methyl 2-hexyldecanoate]	36	176	
C#C[C@]1(COC(=O)C(C)CCCCC)O[C@@H](n2cnc3c(N)nc(F)nc32)C[C@@H]1O (stereo partly drawn) [Example 23, ((2R,3S,5R)-5-(6-amino-2-fluoro-9H-purin-9-yl)-2-ethynyl-3-hydroxytetrahydrofuran-2-yl)methyl 2-methylheptanoate]	1	7	
C#C[C@]1(COC(=O)CC(F)(F)F)O[C@@H](n2cnc3c(N)nc(F)nc32)C[C@@H]1O [Example 24, ((2R,3S,5R)-5-(6-amino-2-fluoro-9H-purin-9-yl)-2-ethynyl-3-hydroxytetrahydrofuran-2-yl)methyl 3,3,3-trifluoropropanoate]	8	37	
C#C[C@]1(COC(=O)C(C)(C)C(F)(F)F)O[C@@H](n2cnc3c(N)nc(F)nc32)C[C@@H]1O [Example 25, ((2R,3S,5R)-5-(6-amino-2-fluoro-9H-purin-9-yl)-2-ethynyl-3-hydroxytetrahydrofuran-2-yl)methyl 3,3,3-trifluoro-2,2-dimethylpropanoate]	21	90	
((2R,3S,5R)-5-(6-amino-2-fluoro-9H-purin-9-yl)-2-ethynyl-3-hydroxytetrahydrofuran-2-yl)methyl tetracosanoate [Example 16]		10700	IC50 [2, 9]: 2280 nM
